ChEMBL document CHEMBL1201862, “PubChem BioAssay data set” (2004)
Active and inactive are the calls of the source.

Legend:
[1] = biological target: NACHT, LRR and PYD domains-containing protein 3 (Homo sapiens, UniProt Q96P20); experiment: NALP3 inhibitors in yeast, dose response, luminescent (AID 488799); format: functional
[2] = biological target: Potassium voltage-gated channel subfamily KQT member 2 (Rattus norvegicus, UniProt O88943, W236L); experiment: KCNQ2 channel potentiators, dose response, mechanism study for KCNQ2 potentiator project, cell-based, automated electrophysiology (AID 2603); format: functional
[3] = biological target: Potassium voltage-gated channel subfamily KQT member 2 (Rattus norvegicus, UniProt O88943); experiment: retigabine-insensitive KCNQ2 potentiators, concentration-response, dose response, cell-based, retigabine-insensitive compounds (AID 2654); format: functional
Cytochrome P450 2C9 = Cytochrome P450 2C9 (Homo sapiens, UniProt P11712); conditions: Potency
[4] = biological target: Intestinal-type alkaline phosphatase (Homo sapiens, UniProt P09923); experiment: Dose Response confirmation of uHTS hits from a small molecule inhibitors of human intestinal alkaline phosphatase via a luminescent assay. [Related pubchem assays (depositor defined):AID2544, AID2574]; format: functional
[5] = biological target: T1, Eukaryotic translation initiation factor 2-alpha kinase 3 (Homo sapiens, UniProt Q9NZJ5); experiment: Counterscreen assay for PERK inhibitors: Dose response cell-based high throughput screening assay to measure inhibition of PERK at 6 hours. [Related pubchem assays: 1522, 1416 ]; format: functional
[6] = biological target: T1, Eukaryotic translation initiation factor 2-alpha kinase 3; experiment: Dose response cell-based high-throughput screening assay to measure PERK inhibition. [Related pubchem assays: 1416 ]; format: functional
[7] = biological target: Metabotropic glutamate receptor 4 (Rattus norvegicus, UniProt P31423); experiment: Modulation of the Metabotropic Glutamate Receptor mGluR4: Rat PAM Potency. [Related pubchem assays (depositor defined):AID2437, AID2807]; format: functional
[8] = biological target: Luciferin 4-monooxygenase (Photinus pyralis, UniProt P08659); experiment: firefly luciferase enzyme inhibitors, dose response, biochemical, luminescence (AID 1891)
[9] = inhibitors of SFLLRN-triggered platelet P-selectin exposure, dose response, cell-based, fluorescence, flow cytometry, human platelets (AID 2511); format: functional
[10] = blockers of SFLLRN-triggered platelet ATP secretion – cell-based, human platelets, luminescence, dry powder, dose response (AID 493100); format: functional
[11] = Luminescence Cell-Based Dose Confirmation HTS to Identify Inhibitors of Platelet Dense Granule Release. [Related pubchem assays: 1663 (Primary HTS), 1678 (Summary of Project)]; format: functional

T1 sequence (Q9NZJ5 whole entry): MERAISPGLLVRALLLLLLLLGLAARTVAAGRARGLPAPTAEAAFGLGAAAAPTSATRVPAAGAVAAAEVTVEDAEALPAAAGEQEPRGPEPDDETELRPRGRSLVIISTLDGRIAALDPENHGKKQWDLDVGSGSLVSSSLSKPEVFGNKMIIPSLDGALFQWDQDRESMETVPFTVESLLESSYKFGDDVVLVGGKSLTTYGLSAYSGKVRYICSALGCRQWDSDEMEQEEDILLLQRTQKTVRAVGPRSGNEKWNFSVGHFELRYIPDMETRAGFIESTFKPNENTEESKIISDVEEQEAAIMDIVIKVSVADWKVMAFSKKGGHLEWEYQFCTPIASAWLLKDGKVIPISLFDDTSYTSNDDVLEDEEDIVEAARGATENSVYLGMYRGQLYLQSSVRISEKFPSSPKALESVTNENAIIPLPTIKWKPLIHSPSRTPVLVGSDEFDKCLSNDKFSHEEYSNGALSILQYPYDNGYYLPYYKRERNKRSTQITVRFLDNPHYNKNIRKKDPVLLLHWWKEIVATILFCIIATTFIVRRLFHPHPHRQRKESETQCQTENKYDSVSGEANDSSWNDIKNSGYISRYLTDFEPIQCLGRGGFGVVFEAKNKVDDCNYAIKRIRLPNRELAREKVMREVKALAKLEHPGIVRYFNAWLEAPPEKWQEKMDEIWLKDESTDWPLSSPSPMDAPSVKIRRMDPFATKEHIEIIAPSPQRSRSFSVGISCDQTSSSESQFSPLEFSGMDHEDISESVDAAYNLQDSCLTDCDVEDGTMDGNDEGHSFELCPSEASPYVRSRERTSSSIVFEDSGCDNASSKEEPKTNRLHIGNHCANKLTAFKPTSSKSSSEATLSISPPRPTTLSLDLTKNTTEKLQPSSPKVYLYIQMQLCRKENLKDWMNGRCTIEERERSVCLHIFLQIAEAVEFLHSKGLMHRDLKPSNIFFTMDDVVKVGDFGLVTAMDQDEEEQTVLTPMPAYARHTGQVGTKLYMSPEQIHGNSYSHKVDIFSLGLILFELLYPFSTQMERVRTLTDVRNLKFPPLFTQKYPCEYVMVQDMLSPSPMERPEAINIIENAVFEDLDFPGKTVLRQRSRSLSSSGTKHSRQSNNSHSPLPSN
Chain of NACHT, LRR and PYD domains-containing protein 3 (Q96P20 whole entry, the tested form may be a part): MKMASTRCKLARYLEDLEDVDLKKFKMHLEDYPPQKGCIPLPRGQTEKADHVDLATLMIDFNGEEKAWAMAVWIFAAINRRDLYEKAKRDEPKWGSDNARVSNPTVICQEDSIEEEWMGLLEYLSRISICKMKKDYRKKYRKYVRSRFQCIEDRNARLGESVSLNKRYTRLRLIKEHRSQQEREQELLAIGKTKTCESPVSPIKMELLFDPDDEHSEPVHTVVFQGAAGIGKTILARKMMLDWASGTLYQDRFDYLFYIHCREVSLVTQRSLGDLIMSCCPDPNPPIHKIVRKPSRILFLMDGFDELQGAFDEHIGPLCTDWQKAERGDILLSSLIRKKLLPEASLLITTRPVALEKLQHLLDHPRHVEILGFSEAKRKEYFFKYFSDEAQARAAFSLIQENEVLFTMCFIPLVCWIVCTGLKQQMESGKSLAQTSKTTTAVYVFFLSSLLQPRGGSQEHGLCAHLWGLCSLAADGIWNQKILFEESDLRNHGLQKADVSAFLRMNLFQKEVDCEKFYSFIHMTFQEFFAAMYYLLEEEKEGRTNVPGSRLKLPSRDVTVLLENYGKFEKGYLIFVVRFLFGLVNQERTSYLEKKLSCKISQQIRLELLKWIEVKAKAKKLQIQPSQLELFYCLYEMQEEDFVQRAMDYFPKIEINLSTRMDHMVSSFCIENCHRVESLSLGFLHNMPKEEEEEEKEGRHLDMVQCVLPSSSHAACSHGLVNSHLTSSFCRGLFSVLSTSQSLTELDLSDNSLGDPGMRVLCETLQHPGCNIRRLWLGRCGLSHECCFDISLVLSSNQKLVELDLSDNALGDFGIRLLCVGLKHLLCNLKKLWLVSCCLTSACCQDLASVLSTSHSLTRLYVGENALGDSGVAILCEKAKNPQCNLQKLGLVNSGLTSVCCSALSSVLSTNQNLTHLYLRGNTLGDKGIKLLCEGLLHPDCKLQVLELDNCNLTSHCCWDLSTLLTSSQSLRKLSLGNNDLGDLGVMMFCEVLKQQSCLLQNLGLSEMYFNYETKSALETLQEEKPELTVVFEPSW
Chain of Intestinal-type alkaline phosphatase (P09923 whole entry): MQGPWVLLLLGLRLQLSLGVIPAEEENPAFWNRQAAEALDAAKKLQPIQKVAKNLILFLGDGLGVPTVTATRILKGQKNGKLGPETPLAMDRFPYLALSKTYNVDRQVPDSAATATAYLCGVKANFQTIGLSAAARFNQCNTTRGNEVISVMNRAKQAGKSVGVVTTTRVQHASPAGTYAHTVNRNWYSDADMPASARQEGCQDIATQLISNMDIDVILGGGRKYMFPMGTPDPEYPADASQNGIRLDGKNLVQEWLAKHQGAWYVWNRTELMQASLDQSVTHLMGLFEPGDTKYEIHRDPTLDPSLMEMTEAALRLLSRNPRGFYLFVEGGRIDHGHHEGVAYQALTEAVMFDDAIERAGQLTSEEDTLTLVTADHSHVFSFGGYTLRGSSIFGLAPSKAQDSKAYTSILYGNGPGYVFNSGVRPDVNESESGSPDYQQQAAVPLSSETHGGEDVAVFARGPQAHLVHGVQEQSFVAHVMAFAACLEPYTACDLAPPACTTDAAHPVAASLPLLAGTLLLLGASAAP
Chain of Potassium voltage-gated channel subfamily KQT member 2 (Rattus norvegicus, UniProt O88943) (O88943 whole entry): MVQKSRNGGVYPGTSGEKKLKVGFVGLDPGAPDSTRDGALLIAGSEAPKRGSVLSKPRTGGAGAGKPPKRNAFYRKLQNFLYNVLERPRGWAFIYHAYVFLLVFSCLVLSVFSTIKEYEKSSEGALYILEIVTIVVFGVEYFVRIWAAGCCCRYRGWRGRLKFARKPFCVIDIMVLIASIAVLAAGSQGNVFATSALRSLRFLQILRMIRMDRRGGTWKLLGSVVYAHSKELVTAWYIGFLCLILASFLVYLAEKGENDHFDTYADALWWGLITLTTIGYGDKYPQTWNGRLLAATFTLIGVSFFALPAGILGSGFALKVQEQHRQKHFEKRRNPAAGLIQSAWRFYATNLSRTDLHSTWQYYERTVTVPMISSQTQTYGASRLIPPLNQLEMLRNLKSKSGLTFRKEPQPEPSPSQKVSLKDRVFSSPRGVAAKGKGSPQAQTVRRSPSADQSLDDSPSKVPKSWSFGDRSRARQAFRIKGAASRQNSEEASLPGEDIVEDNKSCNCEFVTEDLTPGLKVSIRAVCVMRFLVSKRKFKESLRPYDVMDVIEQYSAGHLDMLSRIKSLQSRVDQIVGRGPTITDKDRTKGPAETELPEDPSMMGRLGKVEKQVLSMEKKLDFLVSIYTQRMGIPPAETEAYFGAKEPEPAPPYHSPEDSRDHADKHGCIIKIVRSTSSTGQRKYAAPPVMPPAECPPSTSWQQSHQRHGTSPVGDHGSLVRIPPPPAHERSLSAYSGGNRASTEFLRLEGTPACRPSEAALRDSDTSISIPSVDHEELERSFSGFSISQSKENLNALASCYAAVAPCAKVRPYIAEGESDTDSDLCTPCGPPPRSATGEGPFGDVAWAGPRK
Chain of Metabotropic glutamate receptor 4 (P31423 whole entry): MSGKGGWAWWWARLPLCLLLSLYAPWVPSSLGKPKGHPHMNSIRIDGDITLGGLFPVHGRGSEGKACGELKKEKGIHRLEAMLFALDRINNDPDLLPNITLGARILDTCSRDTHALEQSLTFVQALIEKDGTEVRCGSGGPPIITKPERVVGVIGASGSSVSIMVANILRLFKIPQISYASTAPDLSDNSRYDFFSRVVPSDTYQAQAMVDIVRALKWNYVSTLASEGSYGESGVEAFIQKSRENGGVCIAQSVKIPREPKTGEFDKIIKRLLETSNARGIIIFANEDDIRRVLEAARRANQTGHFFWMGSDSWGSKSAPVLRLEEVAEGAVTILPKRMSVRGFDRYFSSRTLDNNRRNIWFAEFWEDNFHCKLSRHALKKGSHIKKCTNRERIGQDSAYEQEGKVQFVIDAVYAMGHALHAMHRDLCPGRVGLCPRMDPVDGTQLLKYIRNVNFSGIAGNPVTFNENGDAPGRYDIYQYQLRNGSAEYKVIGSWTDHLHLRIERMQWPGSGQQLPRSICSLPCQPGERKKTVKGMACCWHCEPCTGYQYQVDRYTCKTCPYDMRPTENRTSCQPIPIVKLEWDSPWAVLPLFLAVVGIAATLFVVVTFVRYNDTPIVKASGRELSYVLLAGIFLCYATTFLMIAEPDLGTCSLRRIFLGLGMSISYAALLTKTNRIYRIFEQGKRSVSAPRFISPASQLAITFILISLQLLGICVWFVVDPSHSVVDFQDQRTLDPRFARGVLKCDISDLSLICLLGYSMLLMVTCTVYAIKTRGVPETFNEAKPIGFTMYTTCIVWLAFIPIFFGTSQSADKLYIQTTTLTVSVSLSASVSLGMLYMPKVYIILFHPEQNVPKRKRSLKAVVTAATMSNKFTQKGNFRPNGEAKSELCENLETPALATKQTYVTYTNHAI
Chain of Potassium voltage-gated channel subfamily KQT member 2 (Rattus norvegicus, UniProt O88943, W236L) (O88943 whole entry W236L): as the sequence (O88943 whole entry) above, with W236L counted along it
Chain of Cytochrome P450 2C9 (P11712 whole entry): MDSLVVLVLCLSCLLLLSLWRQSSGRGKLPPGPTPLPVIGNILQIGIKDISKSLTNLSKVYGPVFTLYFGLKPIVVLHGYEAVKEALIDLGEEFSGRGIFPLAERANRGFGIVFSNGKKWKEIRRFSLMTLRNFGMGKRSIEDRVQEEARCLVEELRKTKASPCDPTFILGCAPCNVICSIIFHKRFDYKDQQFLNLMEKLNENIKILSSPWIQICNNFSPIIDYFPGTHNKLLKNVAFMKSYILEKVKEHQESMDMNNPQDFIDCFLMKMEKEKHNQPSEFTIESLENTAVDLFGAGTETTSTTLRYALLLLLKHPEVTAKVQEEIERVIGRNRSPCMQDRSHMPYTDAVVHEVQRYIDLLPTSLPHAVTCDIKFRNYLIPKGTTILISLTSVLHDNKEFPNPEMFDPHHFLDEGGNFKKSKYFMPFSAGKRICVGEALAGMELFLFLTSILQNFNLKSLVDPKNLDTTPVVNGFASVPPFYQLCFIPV

Question: For `c1ccc(OCc2nnnn2-c2ccccc2)cc1`, which IC50 [1] is on record?
Answer: Its IC50 is 6 µM (active).

Question: What does the source list for `S=C(Nc1ccc(Oc2ccccc2)cc1)Nc1cccnc1`?
Answer: EC50 [2]: 7.25 µM (active); EC50 [3]: 4.45 µM (active)

Question: Which AC50 (Cytochrome P450 2C9) does the source give for `CC(C)[C@@H](CC(=O)N[C@@H]1CCCC[C@H]1C(=O)N[C@H](CC(=O)N[C@@H](CCC(=O)O)CC(=O)O)Cc1ccccc1)NC(=O)C[C@H](CO)NC(=O)[C@@H]1CNCC[C@H]1N` here?
Answer: Its AC50 is 31.6 µM (inconclusive).

Question: Which IC50 [4] does the source give for `CCOc1cccc(OCCOCCOc2ccccc2C(C)=O)c1` here?
Answer: The IC50 was > 100 µM (inactive).

Question: Which EC50 [5] does the source give for `O=C(O)CSc1ncnc2scc(-c3ccc(Br)cc3)c12` here?
Answer: Its EC50 is > 55.7 µM (not active).

Question: And the EC50 [6]?
Answer: The EC50 was > 55.7 µM (not active).

Question: With `O=C(Nc1ccc(NC(=O)c2ccccc2Cl)c(F)c1)c1ccccn1` as the compound, how does the EC50 [7] read?
Answer: The EC50 was 0.74 µM (active).

Question: For `Cc1ccc(-c2c(C#N)c(N)n(-c3ccc(C)cc3)c(=O)c2C#N)cc1`, which EC50 [8] is on record?
Answer: Its EC50 is > 112 µM (not active).

Question: What about the EC50 [9] of the same compound?
Answer: Its EC50 is < 3 µM (active).

Question: And the AC50 [10]?
Answer: The AC50 was 9.08 µM (active).

Question: And the EC50 [11]?
Answer: The EC50 was 2.3 µM (active).
